Laboratory results reported in the NIST ThermoML archive (doi:10.1016/j.tca.2018.01.023).
Values joined by “and” are separate entries in the source; they are usually repeats but may differ in a detail not shown here. Equal entries are not always repeated.

Test: molar heat capacity at constant pressure
Conditions: 101.33 kPa, Crystal, Small sample (50 mg) DSC

[Ca+2].[O]=[Mo](=[O])([O-])[O-] [calcium molybdate(VI)]
Conditions | molar heat capacity at constant pressure
255.5 K | 107.3 J/K/mol
255.9 K | 107.4 J/K/mol
256.9 K | 107.5 J/K/mol
257.9 K | 107.6 J/K/mol
258.9 K | 107.7 J/K/mol
259.9 K | 107.8 J/K/mol
260.9 K | 107.8 J/K/mol
261.9 K | 107.9 J/K/mol
262.9 K | 108 J/K/mol
263.9 K | 108.2 J/K/mol
264.9 K | 108.3 J/K/mol
265.9 K | 108.4 J/K/mol
266.9 K | 108.6 J/K/mol
267.9 K | 108.8 J/K/mol
268.9 K | 109 J/K/mol
269.9 K | 109.2 J/K/mol
270.9 K | 109.4 J/K/mol
272 K | 109.6 J/K/mol
273 K | 109.8 J/K/mol
274 K | 110 J/K/mol
275 K | 110.3 J/K/mol
276 K | 110.5 J/K/mol
277 K | 110.7 J/K/mol
278 K | 111 J/K/mol
279 K | 111.2 J/K/mol
280 K | 111.5 J/K/mol
281 K | 111.6 J/K/mol
282 K | 111.8 J/K/mol
283 K | 112 J/K/mol
284 K | 112.2 J/K/mol
285 K | 112.3 J/K/mol
286 K | 112.5 J/K/mol
287 K | 112.7 J/K/mol
288 K | 112.9 J/K/mol
289 K | 113 J/K/mol
290.1 K | 113.2 J/K/mol
291.1 K | 113.4 J/K/mol
292.1 K | 113.6 J/K/mol
293.1 K | 113.8 J/K/mol
294.1 K | 114 J/K/mol
295.1 K | 114.1 J/K/mol
296.1 K | 114.3 J/K/mol
297.1 K | 114.5 J/K/mol
298.1 K | 114.6 J/K/mol
298.15 K | 114.2 J/K/mol
299.1 K | 114.8 J/K/mol
300.1 K | 115 J/K/mol
301.1 K | 115.1 J/K/mol
302.1 K | 115.3 J/K/mol
303.1 K | 115.4 J/K/mol
304.1 K | 115.6 J/K/mol
305.1 K | 115.7 J/K/mol
306.1 K | 115.9 J/K/mol
307.1 K | 116.1 J/K/mol
308.2 K | 116.2 J/K/mol
309.2 K | 116.4 J/K/mol
310 K | 116.5 J/K/mol
310.2 K | 116.5 J/K/mol
311.2 K | 116.7 J/K/mol
312.2 K | 116.8 J/K/mol
313.2 K | 116.9 J/K/mol
314.2 K | 117.1 J/K/mol
315 K | 117.3 J/K/mol
315.2 K | 117.3 J/K/mol
316.2 K | 117.4 J/K/mol
317.2 K | 117.6 J/K/mol
317.4 K | 117.7 J/K/mol
318.2 K | 117.8 J/K/mol
318.4 K | 118 J/K/mol
319.2 K | 117.9 J/K/mol
319.4 K | 118.2 J/K/mol
320 K | 118.1 J/K/mol
320.2 K | 118.1 J/K/mol
320.4 K | 118.4 J/K/mol
321.2 K | 118.3 J/K/mol
321.4 K | 118.5 J/K/mol
322.2 K | 118.5 J/K/mol
322.4 K | 118.6 J/K/mol
323.2 K | 118.6 J/K/mol
323.4 K | 118.8 J/K/mol
324.2 K | 118.7 J/K/mol
324.4 K | 118.9 J/K/mol
325 K | 118.8 J/K/mol
325.2 K | 118.8 J/K/mol
325.4 K | 119 J/K/mol
326.2 K | 119 J/K/mol
326.4 K | 119.1 J/K/mol
327.2 K | 119.1 J/K/mol
327.4 K | 119.2 J/K/mol
328.2 K | 119.2 J/K/mol
328.4 K | 119.4 J/K/mol
329.2 K | 119.3 J/K/mol
329.4 K | 119.5 J/K/mol
330 K | 119.5 J/K/mol
330.2 K | 119.5 J/K/mol
330.4 K | 119.6 J/K/mol
331.3 K | 119.7 J/K/mol
331.4 K | 119.7 J/K/mol
332.3 K | 119.9 J/K/mol
332.4 K | 119.8 J/K/mol
333.3 K | 120 J/K/mol
333.4 K | 120 J/K/mol
334.3 K | 120.1 J/K/mol
334.4 K | 120.1 J/K/mol
335 K | 120.2 J/K/mol
335.3 K | 120.2 J/K/mol
335.4 K | 120.3 J/K/mol
336.3 K | 120.3 J/K/mol
336.4 K | 120.4 J/K/mol
337.3 K | 120.5 J/K/mol
337.4 K | 120.6 J/K/mol
338.3 K | 120.6 J/K/mol
338.4 K | 120.7 J/K/mol
339.3 K | 120.7 J/K/mol
339.4 K | 120.9 J/K/mol
340 K | 120.9 J/K/mol
340.3 K | 120.8 J/K/mol
340.4 K | 121 J/K/mol
341.3 K | 121 J/K/mol
341.4 K | 121.1 J/K/mol
342.3 K | 121.2 J/K/mol
342.4 K | 121.2 J/K/mol
343.3 K | 121.4 J/K/mol
343.4 K | 121.4 J/K/mol
344.3 K | 121.5 J/K/mol
344.4 K | 121.5 J/K/mol
345 K | 121.5 J/K/mol
345.3 K | 121.7 J/K/mol
345.4 K | 121.6 J/K/mol
346.3 K | 121.8 J/K/mol
346.4 K | 121.8 J/K/mol
347.3 K | 121.9 J/K/mol
347.4 K | 122 J/K/mol
348.3 K | 122 J/K/mol
348.4 K | 122.3 J/K/mol
349.3 K | 122.1 J/K/mol
349.4 K | 122.6 J/K/mol
350 K | 122.2 J/K/mol
350.3 K | 122.2 J/K/mol
350.4 K | 122.6 J/K/mol
351.3 K | 122.3 J/K/mol
351.4 K | 122.6 J/K/mol
352.3 K | 122.4 J/K/mol
352.4 K | 122.5 J/K/mol
353.3 K | 122.5 J/K/mol
353.4 K | 122.5 J/K/mol
354.3 K | 122.7 J/K/mol
354.4 K | 122.6 J/K/mol
355 K | 122.8 J/K/mol
355.3 K | 122.8 J/K/mol
355.4 K | 122.7 J/K/mol
356.3 K | 122.9 J/K/mol
356.4 K | 123 J/K/mol
357.3 K | 123.1 J/K/mol
357.4 K | 123.2 J/K/mol
358.3 K | 123.3 J/K/mol
358.4 K | 123.4 J/K/mol
359.3 K | 123.4 J/K/mol
359.4 K | 123.5 J/K/mol
360 K | 123.4 J/K/mol
360.3 K | 123.6 J/K/mol
360.4 K | 123.6 J/K/mol
361.4 K | 123.7 J/K/mol
362.4 K | 123.8 J/K/mol
363.4 K | 123.9 J/K/mol
364.4 K | 124.1 J/K/mol and 124 J/K/mol
365 K | 124 J/K/mol
365.4 K | 124.2 J/K/mol and 124.1 J/K/mol
366.4 K | 124.3 J/K/mol and 124.2 J/K/mol
367.4 K | 124.4 J/K/mol and 124.3 J/K/mol
368.4 K | 124.5 J/K/mol and 124.4 J/K/mol
369.4 K | 124.6 J/K/mol
370 K | 124.6 J/K/mol
370.4 K | 124.7 J/K/mol
371.4 K | 124.8 J/K/mol and 124.9 J/K/mol
372.4 K | 125 J/K/mol
373.4 K | 125.1 J/K/mol
374.4 K | 125.2 J/K/mol
375 K | 125.2 J/K/mol
375.4 K | 125.3 J/K/mol
376.4 K | 125.4 J/K/mol
377.4 K | 125.6 J/K/mol and 125.5 J/K/mol
378.4 K | 125.7 J/K/mol and 125.5 J/K/mol
379.4 K | 125.9 J/K/mol and 125.6 J/K/mol
380 K | 125.8 J/K/mol
380.4 K | 126 J/K/mol and 125.7 J/K/mol
381.4 K | 126.1 J/K/mol and 125.8 J/K/mol
382.4 K | 126.2 J/K/mol and 125.9 J/K/mol
383.4 K | 126.3 J/K/mol and 126 J/K/mol
384.4 K | 126.3 J/K/mol and 126.2 J/K/mol
385 K | 126.3 J/K/mol
385.4 K | 126.4 J/K/mol and 126.3 J/K/mol
386.4 K | 126.4 J/K/mol
387.4 K | 126.5 J/K/mol
388.4 K | 126.6 J/K/mol and 126.7 J/K/mol
389.4 K | 126.8 J/K/mol
390 K | 126.8 J/K/mol
390.4 K | 126.9 J/K/mol and 126.8 J/K/mol
391.4 K | 127.1 J/K/mol
391.5 K | 126.9 J/K/mol
392.4 K | 127.2 J/K/mol
392.5 K | 127 J/K/mol
393.4 K | 127.3 J/K/mol
393.5 K | 127.1 J/K/mol
394.4 K | 127.4 J/K/mol
394.5 K | 127.2 J/K/mol
395 K | 127.4 J/K/mol
395.4 K | 127.5 J/K/mol
